Results from PubChem BioAssay (NCI).
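Interpolation was linear, between the two tested concentrations surrounding the appropriate level; five concentrations were tested over 48 hours in 96-well plates. Here, GI50 denotes the concentration required for 50% inhibition of growth. TGI denotes the concentration required for complete inhibition of growth.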

Key:
Assay in all cases: inhibition of tumour cell growth, NCI panel, 48 h
[1] = system: 786-0 renal
[2] = system: A498 renal
[3] = system: A549 NSCLC
[4] = system: ACHN renal
[5] = system: BT-549 breast
[6] = system: CAKI-1 renal
[7] = system: CCRF-CEM leukemia
[8] = system: COLO 205 colon
[9] = system: DU-145 prostate
[10] = system: EKVX NSCLC
[11] = system: HCC-2998 colon
[12] = system: HCT-116 colon
[13] = system: HCT-15 colon
[14] = system: HL-60(TB) leukemia
[15] = system: HOP-62 NSCLC
[16] = system: HOP-92 NSCLC
[17] = system: HS 578T breast
[18] = system: HT29 colon
[19] = system: IGROV1 ovarian
[20] = system: K-562 leukemia
[21] = system: KM12 colon
[22] = system: LOX IMVI melanoma
[23] = system: M14 melanoma
[24] = system: MALME-3M melanoma
[25] = system: MCF7 breast
[26] = system: MDA-MB-231 breast
[27] = system: MDA-MB-435
[28] = system: MDA-MB-468 breast
[29] = system: MOLT-4 leukemia
[30] = system: NCI-H226 lung
[31] = system: NCI-H23 lung
[32] = system: NCI-H460 lung
[33] = system: NCI-H522 lung
[34] = system: NCI/ADR-RES ovarian
[35] = system: OVCAR-3 ovarian
[36] = system: OVCAR-4 ovarian
[37] = system: OVCAR-5 ovarian
[38] = system: OVCAR-8 ovarian
[39] = system: PC-3 prostate
[40] = system: RPMI-8226 leukemia
[41] = system: RXF 393 renal
[42] = system: SF-268 CNS
[43] = system: SF-295 CNS
[44] = system: SF-539 CNS
[45] = system: SK-MEL-2 melanoma
[46] = system: SK-MEL-28 melanoma
[47] = system: SK-MEL-5 melanoma
[48] = system: SK-OV-3 ovarian
[49] = system: SN12C renal
[50] = system: SNB-19 CNS
[51] = system: SR leukemia
[52] = system: SW-620 colon
[53] = system: T-47D breast
[54] = system: TK-10 renal
[55] = system: U251 CNS
[56] = system: UACC-257 melanoma
[57] = system: UACC-62 melanoma
[58] = system: UO-31 renal

SMILES: O=C(NNc1nc2cc(F)ccc2n2c(CN3CCCCC3)ccc12)c1cnccn1
- GI50 [1]: 1320 nM
- TGI [1]: 4360 nM
- GI50 [2]: 13900 nM
- TGI [2]: 26900 nM
- GI50 [3]: 1220 nM
- TGI [3]: 11800 nM
- GI50 [4]: 763 nM
- TGI [4]: 7910 nM
- GI50 [5]: 1570 nM
- TGI [5]: 12700 nM
- GI50 [6]: 918 nM
- TGI [6]: 11000 nM
- GI50 [7]: 462 nM
- TGI [7]: 3170 nM
- GI50 [8]: 1160 nM
- TGI [8]: 9740 nM
- GI50 [9]: 1410 nM
- TGI [9]: 11800 nM
- GI50 [10]: 525 nM
- TGI [10]: 3760 nM
- GI50 [11]: 1140 nM
- TGI [11]: 11600 nM
- GI50 [12]: 701 nM
- TGI [12]: 12500 nM
- GI50 [13]: 190 nM
- TGI [13]: 12800 nM
- GI50 [14]: 340 nM
- TGI [14]: 1640 nM
- GI50 [15]: 1140 nM
- TGI [15]: 7910 nM
- GI50 [16]: 1190 nM
- TGI [16]: 5370 nM
- GI50 [17]: 2620 nM
- TGI [17]: 18000 nM
- GI50 [18]: 474 nM
- TGI [18]: 13300 nM
- GI50 [19]: 894 nM
- TGI [19]: 5060 nM
- GI50 [20]: 1220 nM
- TGI [20]: 4580 nM
- GI50 [21]: 1170 nM
- TGI [21]: 12400 nM
- GI50 [22]: 682 nM
- TGI [22]: 2880 nM
- GI50 [23]: 1490 nM
- TGI [23]: 5540 nM
- GI50 [24]: 2310 nM
- TGI [24]: 8940 nM
- GI50 [25]: 1580 nM
- TGI [25]: 10300 nM
- GI50 [26]: 1260 nM
- TGI [26]: 10400 nM
- GI50 [27]: 2740 nM
- TGI [27]: 13900 nM
- GI50 [28]: 1200 nM
- TGI [28]: 3100 nM
- GI50 [29]: 388 nM
- TGI [29]: 2320 nM
- GI50 [30]: 1640 nM
- TGI [30]: 6800 nM
- GI50 [31]: 1390 nM
- TGI [31]: 3430 nM
- GI50 [32]: 392 nM
- TGI [32]: 3150 nM
- GI50 [33]: 1360 nM
- TGI [33]: 5100 nM
- GI50 [34]: 514 nM
- TGI [34]: 2290 nM
- GI50 [35]: 2040 nM
- TGI [35]: 16000 nM
- GI50 [36]: 842 nM
- TGI [36]: 4550 nM
- GI50 [37]: 1350 nM
- TGI [37]: 7230 nM
- GI50 [38]: 944 nM
- TGI [38]: 5270 nM
- GI50 [39]: 1220 nM
- TGI [39]: 6720 nM
- GI50 [40]: 953 nM
- TGI [40]: 12100 nM
- GI50 [41]: 1690 nM
- TGI [41]: 5620 nM
- GI50 [42]: 1330 nM
- TGI [42]: 11800 nM
- GI50 [43]: 599 nM
- TGI [43]: 6270 nM
- GI50 [44]: 1140 nM
- TGI [44]: 6940 nM
- GI50 [45]: 2130 nM
- TGI [45]: 12400 nM
- GI50 [46]: 2700 nM
- TGI [46]: 13300 nM
- GI50 [47]: 1810 nM
- TGI [47]: 8100 nM
- GI50 [48]: 1170 nM
- TGI [48]: 10900 nM
- GI50 [49]: 1290 nM
- TGI [49]: 8500 nM
- GI50 [50]: 1540 nM
- TGI [50]: 12000 nM
- GI50 [51]: 288 nM
- TGI [51]: 2210 nM
- GI50 [52]: 1070 nM
- TGI [52]: 10700 nM
- GI50 [53]: 2070 nM
- TGI [53]: 10200 nM
- GI50 [54]: 969 nM
- TGI [54]: 10200 nM
- GI50 [55]: 967 nM
- TGI [55]: 11700 nM
- GI50 [56]: 2730 nM
- TGI [56]: 9770 nM
- GI50 [57]: 1280 nM
- TGI [57]: 3240 nM
- GI50 [58]: 330 nM
- TGI [58]: 4910 nM
